Read-outs that look alike come from different tables or passages of the source.
Test system: HCV 1b genotype
Experiment: HCV Replicon assay (HCV-neo replicon cells, wild-type)
Type: cell-based
Settings: HCV 1b genotype replicon, read-out: 1b EC50 (in μM or range)
Protocol: An HCV Replicon assay was utilized in the present disclosure, and was prepared, conducted and validated as described in commonly owned PCT/US2006/022197 and in O′Boyle et. al. Antimicrob Agents Chemother, 2005 April; 49(4):1346-53. Assay methods incorporating luciferase reporters have also been used as described (Apath.com).
HCV-neo replicon cells and replicon cells containing mutations in the NS5A region were used to test the currently described family of compounds. The compounds were determined to have more than 10-fold less inhibitory activity on cells containing mutations than wild-type cells. Thus, the compounds of the present disclosure can be effective in inhibiting the function of the HCV NS5A protein and are understood to be as effective in combinations as previously described in application PCT/US2006/022197 and commonly owned WO/04014852. Further, the compounds of the present disclosure can be effective against the HCV 1b genotype. It should also be understood that the compounds of the present disclosure can inhibit multiple genotypes of HCV. […] In one embodiment, compounds of the present disclosure are inhibitory versus 1a, 1b, 2a, 2b, 3a, 4a, and 5a genotypes.

[1] = Hepatitis C virus, range class A-D

| SMILES | EC50 [1] [µM] | other results |
| --- | --- | --- |
| CC(C)(C(=O)N1CCC[C@H]1C(=O)Nc1ccc(C#Cc2ccc(NC(=O)[C@@H]3CCCN3C(=O)C(C)(C)c3ccccc3)cc2)cc1)c1ccccc1 [VN3, (2S,2′S)-N,N′-(1,2-ethynediyldi-4,1-phenylene)bis(1-(2-methyl-2-phenylpropanoyl)-2-pyrrolidinecarboxamide)] | 0.00457 to 0.099 | – |
| O=C(Nc1ccc(C#Cc2ccc(NC(=O)[C@@H]3CCCN3C(=O)[C@H](O)c3ccccc3)cc2)cc1)[C@@H]1CCCN1C(=O)[C@H](O)c1ccccc1 [Example D43, (2S,2′S)-N,N′-(1,2-ethynediyldi-4,1-phenylene)bis(1-((2R)-2-hydroxy-2-phenylacetyl)-2-pyrrolidinecarboxamide)] | < 0.00457 | – |
| O=C1CN(C(C(=O)N2CCC[C@H]2C(=O)Nc2ccc(C#Cc3ccc(NC(=O)[C@@H]4CCCN4C(=O)C(c4ccccc4)N4CCNC(=O)C4)cc3)cc2)c2ccccc2)CCN1 (single isomer, unassigned) [VN33.5] | – | EC50 (range class A-D): 0.1 to 0.999 µM |
| O=C(Nc1ccc(C#Cc2ccc(NC(=O)[C@@H]3CCCN3C(=O)Cc3ccccc3)cn2)nc1)[C@@H]1CCCN1C(=O)Cc1ccccc1 [Example D52, (2S,2′S)-N,N′-(6,6′-(ethyne-1,2-diyl)bis(pyridine-6,3-diyl))bis(1-(2-phenylacetyl)pyrrolidine-2-carboxamide)] | 0.00457 to 0.099 | – |
| CN(C)C1(C(=O)N2CCC[C@H]2C(=O)Nc2ccc(C#Cc3ccc(NC(=O)[C@@H]4CCCN4C(=O)C4(N(C)C)CCc5ccccc54)cc3)cc2)CCc2ccccc21 (stereo partly drawn) [VN42, (2S,2′S)-N,N′-(1,2-ethynediyldi-4,1-phenylene)bis(1-((1-(dimethylamino)-2,3-dihydro-1H-inden-1-yl)carbonyl)-2-pyrrolidinecarboxamide)] | – | EC50 (range class A-D): 0.00457 to 0.099 µM |
| CN1Cc2ccccc2C1C(=O)N1CCC[C@H]1C(=O)Nc1ccc(C#Cc2ccc(NC(=O)[C@@H]3CCCN3C(=O)C3c4ccccc4CN3C)cc2)cc1 (stereo partly drawn) [VN39, (2S,2′S)-N,N′-(1,2-ethynediyldi-4,1-phenylene)bis(1-((2-methyl-2,3-dihydro-1H-isoindol-1-yl)carbonyl)-2-pyrrolidinecarboxamide)] | – | EC50 (range class A-D): 0.1 to 0.999 µM |
| CCN(C)C(C(=O)N1CCC[C@H]1C(=O)Nc1ccc(C#Cc2ccc(NC(=O)[C@@H]3CCCN3C(=O)C(c3ccccc3)N(C)CC)cc2)cc1)c1ccccc1 (single isomer, unassigned) [VN36] | < 0.00457 | – |
| CN(C)[C@H](Cc1ccccc1)C(=O)N1CCC[C@H]1C(=O)Nc1ccc(C#Cc2ccc(NC(=O)[C@@H]3CCCN3C(=O)[C@@H](Cc3ccccc3)N(C)C)cc2)cc1 [VN28, (2S,2′S)-N,N′-(1,2-ethynediyldi-4,1-phenylene)bis(1-((2R)-2-(dimethylamino)-3-phenylpropanoyl)-2-pyrrolidinecarboxamide)] | < 0.00457 | – |
| O=C(CC1CC1)Nc1ccc(C#Cc2ccc(NC(=O)[C@@H]3CCCN3C(=O)OCc3ccccc3)cc2)cc1 [Example D19, Benzyl (2S)-2-((4-((4-((cyclopropylacetyl)amino)phenyl)ethynyl)phenyl)carbamoyl)-1-pyrrolidinecarboxylate] | 0.1 to 0.999 | – |
| COc1cccc2c(C(=O)N3CCC[C@H]3C(=O)Nc3ccc(C#Cc4ccc(NC(=O)[C@@H]5CCCN5C(C)=O)cc4)cc3)nc(Cl)cc12 [Example D46, (2S)-1-Acetyl-N-(4-((4-((((2S)-1-((3-chloro-5-methoxy-1-isoquinolinyl)carbonyl)-2-pyrrolidinyl)carbonyl)amino)phenyl)ethynyl)phenyl)-2-pyrrolidinecarboxamide] | 0.1 to 0.999 | – |
| CC(=O)N(C)C(C(=O)N1CCC[C@H]1C(=O)Nc1ccc(C#Cc2ccc(NC(=O)[C@@H]3CCCN3C(=O)C(c3ccccc3)N(C)C(C)=O)cc2)cc1)c1ccccc1 (stereo partly drawn) [VN46, (2S,2′S)-N,N′-(1,2-ethynediyldi-4,1-phenylene)bis(1-((acetyl(methyl)amino)(phenyl)acetyl)-2-pyrrolidinecarboxamide)] | 0.1 to 0.999 | – |
| CC(=O)N1CCC[C@H]1C(=O)Nc1ccc(C#Cc2ccc(NC(=O)C3CCN(C(=O)OCc4ccccc4)C3)cc2)cc1 (stereo partly drawn) [Example D4, Benzyl 3-((4-((4-((1-acetyl-L-prolyl)amino)phenyl)ethynyl)phenyl)carbamoyl)-1-pyrrolidinecarboxylate] | 1 to 10 | – |
| CC(=O)N1CCC[C@H]1C(=O)Nc1ccc(C#Cc2ccc(NC(=O)[C@@H]3CCCN3C(=O)Cc3ccccc3)cc2)cc1 [Example D22, (2S)-1-Acetyl-N-(4-((4-((((2S)-1-(phenylacetyl)-2-pyrrolidinyl)carbonyl)amino)phenyl)ethynyl)phenyl)-2-pyrrolidinecarboxamide] | – | EC50 (Hepatitis C virus): 0.14 µM |
| O=C(Nc1ccc(C#Cc2ccc(NC(=O)[C@@H]3CCCN3C(=O)OCc3ccccc3)cc2)cc1)C1CCC1 [Example D20, Benzyl (2S)-2-((4-((4-((cyclobutylcarbonyl)amino)phenyl)ethynyl)phenyl)carbamoyl)-1-pyrrolidinecarboxylate] | 0.1 to 0.999 | – |
| O=C(Nc1ccc(C#Cc2ccc(NC(=O)[C@@H]3CCCCN3C(=O)OCc3ccccc3)cc2)cc1)[C@@H]1CCCCN1C(=O)OCc1ccccc1 [Example D12, Dibenzyl (2S,2′S)-2,2′-(1,2-ethynediylbis(4,1-phenylenecarbamoyl))di(1-piperidinecarboxylate)] | 0.1 to 0.999 | – |
| CC[C@H](C(=O)N1CCC[C@H]1C(=O)Nc1ccc(C#Cc2ccc(NC(=O)[C@@H]3CCCN3C(=O)[C@@H](CC)c3ccccc3)cc2)cc1)c1ccccc1 [VN6, (2S,2′S)-N,N′-(1,2-ethynediyldi-4,1-phenylene)bis(1-((2S)-2-phenylbutanoyl)-2-pyrrolidinecarboxamide)] | 0.00457 to 0.099 | – |
| CN(CC(N)=O)C(C(=O)N1CCC[C@H]1C(=O)Nc1ccc(C#Cc2ccc(NC(=O)[C@@H]3CCCN3C(=O)C(c3ccccc3)N(C)CC(N)=O)cc2)cc1)c1ccccc1 (single isomer, unassigned) [VN34] | < 0.00457 | – |
| CC(=O)N1CCC[C@H]1C(=O)Nc1ccc(C#Cc2ccc(NC(=O)C3CC(=O)N(Cc4ccc(Cl)cc4)C3)cc2)cc1 (stereo partly drawn) [Example D13, 1-Acetyl-N-(4-((4-(((1-(4-chlorobenzyl)-5-oxo-3-pyrrolidinyl)carbonyl)amino)phenyl)ethynyl)phenyl)-L-prolinamide] | 1 to 10 | – |
| CN(C)[C@H](C(=O)N1CCC[C@H]1C(=O)Nc1ccc(C#Cc2ccc(NC(=O)[C@@H]3CCCN3C(=O)[C@H](c3ccccc3)N(C)C)cc2)cc1)c1ccccc1 [VN22, (2S,2′S)-N,N′-(1,2-ethynediyldi-4,1-phenylene)bis(1-((2S)-2-(dimethylamino)-2-phenylacetyl)-2-pyrrolidinecarboxamide)] | < 0.00457 | – |
| COc1ccc2c(C(=O)N3CCC[C@H]3C(=O)Nc3ccc(C#Cc4ccc(NC(=O)[C@@H]5CCCN5C(=O)c5nc(Cl)cc6cc(OC)ccc56)cc4)cc3)nc(Cl)cc2c1 [Example D35, (2S,2′S)-N,N′-(1,2-ethynediyldi-4,1-phenylene)bis(1-((3-chloro-6-methoxy-1-isoquinolinyl)carbonyl)-2-pyrrolidinecarboxamide)] | – | EC50 (Hepatitis C virus): 0.094 µM |
| CC(=O)N(C)C(C(=O)N1CCC[C@H]1C(=O)Nc1ccc(C#Cc2ccc(NC(=O)[C@@H]3CCCN3C(=O)C(c3ccccc3)N(C)C(C)=O)cc2)cc1)c1ccccc1 (single isomer, unassigned) [VN35] | 0.1 to 0.999 | – |
| CC(=O)O[C@@H]1C[C@@H](C(=O)Nc2ccc(C#Cc3ccc(NC(=O)[C@@H]4CCCN4C(C)=O)cc3)cc2)N(C(=O)Cc2ccccc2)C1 [Example D27, (3R,5S)-5-((4-((4-((((2S)-1-Acetyl-2-pyrrolidinyl)carbonyl)amino)phenyl)ethynyl)phenyl)carbamoyl)-1-(phenylacetyl)-3-pyrrolidinyl acetate] | 0.00457 to 0.099 | – |
| CN(C)C(C)(C(=O)N1CCC[C@H]1C(=O)Nc1ccc(C#Cc2ccc(NC(=O)[C@@H]3CCCN3C(=O)C(C)(c3ccccc3)N(C)C)cc2)cc1)c1ccccc1 (stereo partly drawn) [VN37, (2S,2′S)-N,N′-(1,2-ethynediyldi-4,1-phenylene)bis(1-(2-(dimethylamino)-2-phenylpropanoyl)-2-pyrrolidinecarboxamide)] | < 0.00457 | – |
| C[C@@H](C(=O)N1CCC[C@H]1C(=O)Nc1ccc(C#Cc2ccc(NC(=O)[C@@H]3CCCN3C(=O)[C@H](C)c3ccccc3)cn2)nc1)c1ccccc1 [Example D54, (2S,2′S)-N,N′-(1,2-ethynediyldi-2,5-pyridinediyl)bis(1-((2R)-2-phenylpropanoyl)-2-pyrrolidinecarboxamide)] | < 0.00457 | – |
| O=C(Nc1ccc(C#Cc2ccc(NC(=O)[C@@H]3CCCN3C(=O)[C@@H](c3ccccc3)N3CCOCC3)cc2)cc1)[C@@H]1CCCN1C(=O)[C@@H](c1ccccc1)N1CCOCC1 [VN13, (2S,2′S)-N,N′-(1,2-ethynediyldi-4,1-phenylene)bis(1-((2R)-2-(4-morpholinyl)-2-phenylacetyl)-2-pyrrolidinecarboxamide)] | < 0.00457 | – |
| COc1cccc2c(C(=O)N3CCC[C@H]3C(=O)Nc3ccc(C#Cc4ccc(NC(=O)[C@@H]5CCCN5C(=O)Cc5cccnc5)cc4)cc3)nc(Cl)cc12 [Example D45, (2S)-1-((3-Chloro-5-methoxy-1-isoquinolinyl)carbonyl)-N-(4-((4-((((2S)-1-(3-pyridinylacetyl)-2-pyrrolidinyl)carbonyl)amino)phenyl)ethynyl)phenyl)-2-pyrrolidinecarboxamide] | 0.1 to 0.999 | – |
| C[C@@](O)(C(=O)N1CCC[C@H]1C(=O)Nc1ccc(C#Cc2ccc(NC(=O)[C@@H]3CCCN3C(=O)[C@@](C)(O)c3ccccc3)cc2)cc1)c1ccccc1 [VN1, (2S,2′S)-N,N′-(1,2-ethynediyldi-4,1-phenylene)bis(1-((2S)-2-hydroxy-2-phenylpropanoyl)-2-pyrrolidinecarboxamide)] | < 0.00457 | – |

From patent US8383094B2, “Hepatitis C virus inhibitors” (Bristol-Myers Squibb Company, priority 2008, dated 2013)
